According to PMC10810133, “Exploring the inhibitory potential of in silico-designed small peptides on Helicobacter pylori Hp0231 (DsbK), a periplasmic oxidoreductase involved in disulfide bond formation” (Frontiers in Molecular Biosciences, 2024):
“Also recorded” adds a separate entry of the source. Where two headings read alike, the source gives them in different places. Residues, ends and D or L forms follow the SMILES beside them.

Key:
Hp0231 [1] = molecular target: T1, Hp0231 (Helicobacter pylori, UniProt O25017); experiment: biochemical
Method: 2.3.7 Assessment of interactions between inhibitory peptides and Hp0231 or Hp0231APHA using microscale thermophoresis
The purified Hp0231 and Hp0231APHA proteins were suspended in HEPES buffer (20 mM HEPES, 150 mM NaCl, 0.05% (v/v) TWEEN 20, pH 7.4). Protein concentrations were determined by absorption measurements at 280 nm, using the extinction coefficients ε280 = 16,055 M^−1 × cm^−1 for Hp0231 and ε280 = 15,930 M^−1 × cm^−1 for Hp0231APHA, calculated using Quest Calculate™ Protein Concentration Calculator (AAT BioQuest, https://www.aatbio.com/tools/calculate-protein-concentration). After adjusting their concentrations to 200 nM, Hp0231 and Hp0231APHA were labeled using a Monolith His-Tag Labeling Kit RED-tris-NTA (NanoTemper Technologies) according to the manufacturer’s instructions. […] To assess binding interactions between the Hp0231/Hp0231APHA proteins and the inhibitory peptides, MST measurements were performed using a NanoTemper ® Monolith NT.115 instrument (NanoTemper Technologies). Samples were prepared according to the manufacturer’s instructions and loaded in Premium coated capillaries (NanoTemper Technologies). Measurements were performed using MO.Control v1.6.1 (NanoTemper Technologies) software. Medium and high MST power were applied at 25°C. The results were analyzed using MO.Affinity Analysis v2.3 (NanoTemper Technologies) and Origin 2019 (OriginLab Corporation). At least three independent measurements were performed for each sample.

Hp0231APHA = molecular target: T2, Hp0231APHA (Helicobacter pylori, UniProt O25017, C159A/C162A); experiment: Microscale thermophoresis (MST) binding of inhibitory peptides to Hp0231APHA (inactive form)
T2 sequence (O25017 1-265 C159A/C162A): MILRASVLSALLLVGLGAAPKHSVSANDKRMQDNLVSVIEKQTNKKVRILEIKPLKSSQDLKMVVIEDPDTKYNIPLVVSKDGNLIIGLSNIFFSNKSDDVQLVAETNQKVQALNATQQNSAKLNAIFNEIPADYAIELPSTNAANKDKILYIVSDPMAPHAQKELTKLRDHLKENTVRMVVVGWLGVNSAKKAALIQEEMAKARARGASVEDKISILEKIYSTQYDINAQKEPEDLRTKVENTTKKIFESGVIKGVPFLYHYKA

Hp0231 [2] = molecular target: T1, Hp0231; experiment: Peptide inhibitory activity assay (time-resolved Eu3+ fluorescence peptide oxidation assay); type: biochemical; conditions: 160 nM Hp0231, […] GSSG, 8 µM substrate S1 or S2, pH 5.5
Method: The peptide oxidation assay was performed as described previously ([Vivian et al., 2009]; [Kurth et al., 2014]) with slight modification. Briefly, peptide substrates (S1—[…]; S2—[…]) with DOTA (1,4,7,10-tetraazacycclododecane-1,4,7,10-tetraacetic acid) coupled at the N-terminus, and a methylcoumarin amide coupled to the Ɛ-amino group of the C-terminal lysine, were custom synthesized by Eurogentec. The lyophilized peptides were resuspended in 100 mM imidazole (pH 6.0) to a concentration of 2 mM. Freshly prepared 100 mM europium trifluoromethanesulfonate (Eu^3+) solution was added to each peptide at a final concentration of 4 mM and the mixtures incubated for 5 min at room temperature to permit Eu^3+ chelation. Eu^3+ was complexed with DOTA in order to facilitate observation of the oxidation rate of cysteine residues in the substrate peptide, leading to the formation of a disulfide bond. This process brings the methylcoumarin antenna into close contact with the DOTA-Eu^3+ fluorophore, resulting in an increase in Eu^3+ fluorescence. Thus, fluorescence could be used to monitor the capacity of Hp0231 or Hp0231APHA to catalyze disulfide bond formation.
Assays were conducted using an Infinite® M Nano + plate reader (Tecan) with an excitation wavelength of 340 nm and emission wavelength 615 nm. There was a 150 µs delay before reading and time-resolved fluorescence was measured over a period of 100 µs. The assay was performed in white 384-well plates (Perkin Elmer, OptiPlate-384). Each well contained 50 μL, which included the reaction buffer consisting of 50 mM MES, 50 mM NaCl, 2 mM EDTA (pH 5.5), 160 nM protein (either Hp0231 or Hp0231APHA), 1.6 mM GSSG (oxidized glutathione) and 8 µM substrate peptide which was added last to initiate the reaction. Three control reactions were included in each experiment: 1) reaction buffer, GSSG and a protein; 2) reaction buffer and substrate peptide; 3) reaction buffer, substrate peptide and GSSG. Measurements were made for three replicate samples and mean values are presented, with the standard error of the mean indicated by error bars. […]

E. coli DsbA = test system: E. coli DsbA; design: method as in Duprez et al. (2015); conditions: ref Duprez et al. (2015); cited from earlier work
[3] = MST, pseudo-titration mode, 25°C, Hp0231, mean of three experiments ± S.D., NB = not binding
[4] = MST, pseudo-titration mode, 25°C, Hp0231APHA (CPHC to APHA, inactive), NB = not binding
[5] = MST, pseudo-titration mode, 25°C, Hp0231APHA (CPHC to APHA, inactive), NB = not binding, read-out: K D

T1 sequence (O25017 entry or part of it): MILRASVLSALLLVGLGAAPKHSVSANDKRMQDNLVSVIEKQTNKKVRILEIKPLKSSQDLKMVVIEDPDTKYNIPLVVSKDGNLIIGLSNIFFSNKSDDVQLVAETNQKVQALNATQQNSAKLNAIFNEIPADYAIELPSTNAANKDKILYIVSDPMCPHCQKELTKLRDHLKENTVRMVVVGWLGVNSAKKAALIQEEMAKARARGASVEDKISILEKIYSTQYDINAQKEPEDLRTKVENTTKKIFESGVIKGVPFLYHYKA

Compound	K D (Hp0231 [1]; [3])	Kd (Hp0231APHA)	Inhibition of Hp0231-catalyzed oxidation of substrate peptides (Eu3+ fluorescence increase) (Hp0231 [2]; inhibitory peptide 0.75 mM)	Kd (Hp0231 [1]; [3])	K D (Hp0231APHA; [4])	Kd (Hp0231APHA; [5])	Inhibition of Hp0231-catalyzed oxidation of substrate peptides (Eu3+ fluorescence increase) (Hp0231 [2]; inhibitory peptide 1 mM)	Kd (Hp0231 [1])	Kd (E. coli DsbA)
CC(=O)N[C@@H](Cc1c[nH]cn1)C(=O)N[C@@H](CCC(N)=O)C(=O)N[C@@H](CO)C(=O)N[C@@H](CS)C(=O)N[C@@H](C)C(=O)N[C@@H](CS)C(=O)N[C@@H](CCC(=O)O)C(=O)N[C@@H](CC(C)C)C(N)=O [WAW8] (Ac-HQSCACEL-NH2)	two binding affinities (low and high)	1.3 ± 0.2 µM	the reaction rate was significantly reduced						
Ac-HQSALYEL-NH2 [WAW6]				> 1000 µM	did not bind; also recorded: no binding	> 1000 µM	did not yield a significant alteration in the fluorescence intensity		
Ac-HQSCAYEL-NH2 [WAW7]	low affinity				no interaction	> 1000 µM	inhibition of the fluorescence intensity increase	112 ± 21 µM	
PSPFATCDF									4 µM
